# According to article PMC12864594, “Photoactivated Proximity Protein Labeling Reveals Enhanced Tumor Retention of a D‐Peptide‐Ruthenium Prodrug Conjugate” (Advanced Healthcare Materials, 2025):
# pEC50: −log10 of the molar value. Several values for one entry are separate records, joined by “and”; a condition that tells them apart may be missing. Equal entries are not always repeated. Peptide text beside a SMILES is read from it.
# What was measured:
# [1] = test system: A549 cells; assay: Intracellular ROS generation, CellROX Deep Red probe, FACS; format: cell-based, human; conditions: for Normalized intracellular ROS generation, light: light 515 nm, 13.1 J cm^−2
# Method: To determine the pathway by which the compounds cause cell death, a ROS generation assay was performed for Δ and Λ isomers of [1]Cl2–[3]Cl2 in A549 cells using the unspecific molecular probe CellROX Deep Red. This assay was used to quantify the formation of singlet oxygen, superoxide, and […], both in the dark or upon green light irradiation (515 nm, 13.1 J cm^−2). The cells treated with medium, Tert‐butyl hydroperoxide (tBHP), cisplatin, and Rose Bengal were used as vehicle control, positive control, negative control, and green light‐activated PDT type II control, respectively. These experiments were conducted in normoxic and hypoxic cells at the same time. The mean fluorescence intensity in each cell, which was quantified by FACS and normalized to that of controls, is a relative measure of intracellular ROS production (see Table 3; raw data in Figures S30 and S31, Supporting Information). At the end of the assay, the absolute ratio R, defined as the ratio of the ROS probe emission intensity in the light group, divided by that in the dark group, was used as quantification of light‐induced ROS production.
# The generation of ROS (reactive oxygen species) in A549 cells was measured using the ROS deep red fluorescence indicator (Abcam, ab186029). A549 (1 × 10^5, 1 mL) were seeded into 12‐well plates (Sarstedt, 83.3921) and incubated for 24 h in the dark under normoxia. The cells were then treated with [1]Cl2 ‐[3]Cl2, cisplatin, Rose Bengal or [Ru(Ph2phen)2Cl2] (15 µM). There were two groups for each drug (dark and light). After 24 h of incubation under normoxia, the plate was washed with cold PBS once, and cells were trypsinized, harvested, and then resuspended in 150 µL PBS. The cell suspension from the centrifuge tubes was transferred to 96‐round bottom well plates (Thermo Scientific, 268200), and the plates were kept in the dark or irradiated with […] light (dose = 13.1 J cm^−2). After which, the Cellular ROS Deep Red dye was added with 1000× dilution, and the cells were further stained for 1 h. The levels of intracellular ROS were then determined using the CytoFLEX flow cytometer using the APC‐A (638 nm excitation, 660/10 nm emission) channel. All flow cytometry data were processed using FlowLogic 8.5 software.
# [2] = test system: A549 cells; assay: 2D cytotoxicity, sulforhodamine B (SRB) end point assay; format: cell-based, human; conditions: A549 2D normoxic cells, 72 h, without washing, no irradiation
# Method: Considering the potential of the six diastereomers for PACT, and their better targeting of αvβ3 in hypoxic A549 cells, compared with PC‐3, their cytotoxicity was determined in 2D monolayers of normoxic and hypoxic A549 cells using a sulforhodamine B (SRB) cell quantification end point assay^[ [66] ^] in the dark (light dose 0 J cm^−2) or upon green light activation (light dose 13.1 J cm^−2). Half‐maximal effective concentrations (EC50 in µM) were measured as an evaluation of the toxicity of the compounds. The photoindex values (PI), defined as EC50,dark/ EC50,light, were calculated to quantify the extent of light activation in cancer cells. […]
# A549 cells (5000) or PC‐3 cells (6000) were seeded in 96‐well plates (Sarstedt, 83.3924), each well contained 100 µL Opti‐MEM (Gibco complete medium 11058‐021, supplemented with 2.5% v/v fetal calf serum (FCS), 0.2% v/v penicillin/streptomycin (P/S), and 1% v/v glutamine) either in normoxic (21% O2) or hypoxic (1.0% O2) incubator. […] Finally, 100 µL of cold trichloroacetic acid (10% w/v) was added to each well to fix the cells, and all plates were then transferred to a 4 °C refrigerator for 48 h before performing an SRB cell quantification endpoint assay (see below).^[ [66] ^] […] Errors were calculated utilizing 95% confidence intervals (±CI in µM). […]
# [3] = mixture of the Δ‐ and Λ‐ isomers; cited from earlier work
# From the text: Table 1 Photochemical properties of isolated Δ and Λ diastereoisomers of [1]Cl2–[3]Cl2 including molar extinction coefficients (ε, in M ^−1 cm^−1) at absorption maximum wavelength (405 nm), photosubstitution quantum yields for step 1 (ΦPS1) and step 2 (ΦPS2) in H2O or 50% MeCN in H2O under green light irradiation, and singlet oxygen quantum yields of each complexes in CD3OD. | column: Complex || To evaluate the efficiency of these ruthenium‐peptide conjugates [1]Cl2–[3]Cl2 as potential PDT type II agents, the quantum yields (ΦΔ) of singlet oxygen generation were further measured by direct spectroscopic detection of ^1O2 emission at 1275 nm in air‐saturated CD3OD (Table 1; Figure S21, Supporting Information). The ΦΔ value for a mixture of the Δ‐ and Λ‐ isomers of [1]Cl2 was already reported in our previous work (0.013 ± 0.005)^[ [51] ^]; within experimental errors, the values found for the isolated isomers were identical (0.008 ± 0.005 and 0.009 ± 0.005), and, like for the isomers of [ ...
# [4] = A549, hypoxia (1%), 15 µM, 24 h
# [5] = A549, hypoxia (1%), 15 µM, 24 h, dark, normalized to dark control
# [6] = A549, hypoxia (1%), 15 µM, 24 h, normalized to dark control
# [7] = A549, normoxia (21%), 15 µM, 24 h
# [8] = A549, normoxia (21%), 15 µM, 24 h, dark, mean fluorescence normalized to dark control
# [9] = A549, normoxia (21%), 15 µM, 24 h, normalized to dark control
compound,measurement,setting,value
CSCC[C@@H](NC(=O)[C@@H](CC(=O)O)NC(=O)CNC(=O)[C@@H](CCCNC(=N)N)NC(=O)[C@@H](CCSC)NC(C)=O)C(N)=O,molar extinction coefficient ε × 10^4 at 405 nm (× 10^4 M^−1 cm^−1),,1.16 and 1.27
CSCC[C@H](NC(=O)[C@@H](CC(=O)O)NC(=O)CNC(=O)[C@@H](CCCNC(=N)N)NC(=O)[C@H](CCSC)NC(C)=O)C(N)=O (HELM PEPTIDE1{[ac].M.[dR].G.[dD].M.[am]}$$$$V2.0),molar extinction coefficient ε × 10^4 at 405 nm (× 10^4 M^−1 cm^−1),,1.12 and 1.05
"N.N.[Cl][Pt][Cl] [Cisplatin, cisplatin]",R (ROS probe emission light group / dark group),[1]; [4],2.00
same,"Normalized intracellular ROS generation, dark",[1]; [5],1.00
same,"Normalized intracellular ROS generation, light",[1]; [6],1.99
same,R (ROS probe emission light group / dark group),[1]; [7],1.74
same,"Normalized intracellular ROS generation, dark",[1]; [8],1.28
same,"Normalized intracellular ROS generation, light",[1]; [9],2.23
O=C([O-])c1c(Cl)c(Cl)c(Cl)c(Cl)c1-c1c2cc(I)c(=O)c(I)c-2oc2c(I)c([O-])c(I)cc12.[Na+].[Na+] [Rose Bengal],R (ROS probe emission light group / dark group),[1]; [4],3.05
same,"Normalized intracellular ROS generation, dark",[1]; [5],0.84
same,"Normalized intracellular ROS generation, light",[1]; [6],2.56
same,R (ROS probe emission light group / dark group),[1]; [7],5.2 and 5.21
same,"Normalized intracellular ROS generation, dark",[1]; [8],0.90
same,"Normalized intracellular ROS generation, light",[1]; [9],4.71
F[P-](F)(F)(F)(F)F.F[P-](F)(F)(F)(F)F.[Ru+2].c1ccc(-c2ccnc3c2ccc2c(-c4ccccc4)ccnc23)cc1.c1ccc(-c2ccnc3c2ccc2c(-c4ccccc4)ccnc23)cc1 [[Ru(Ph2phen)2(H2O)2](PF6)2],pEC50,[2],< 4.00
"CC(C)(C)OO [tBHP, Tert‐butyl hydroperoxide]","Normalized intracellular ROS generation, dark","[1]; A549, hypoxia (1%), positive control 250 µM, 1 h",4.36
same,"Normalized intracellular ROS generation, dark","[1]; A549, normoxia (21%), positive control 250 µM, 1 h",14.00
Ac-MRGDM-NH2,molar extinction coefficient ε × 10^4 at 405 nm (× 10^4 M^−1 cm^−1),,1.18 and 1.21
[Ru(Ph2phen)2(Ac‐MRGDM‐NH2)]Cl2 (sidechain bridge or staple) [[1]Cl2],ΦΔ (1O2) singlet oxygen quantum yield,[3],0.013 ± 0.005
